This note sets out measurements from patent US9290457B2, “Substituted dihydropyrimidinones and their use as inhibitors of neutrophil elastase activity” (Boehringer Ingelheim International GmbH, priority 2014, dated 2016).

Sequence of neutrophil elastase (P08246 30-247): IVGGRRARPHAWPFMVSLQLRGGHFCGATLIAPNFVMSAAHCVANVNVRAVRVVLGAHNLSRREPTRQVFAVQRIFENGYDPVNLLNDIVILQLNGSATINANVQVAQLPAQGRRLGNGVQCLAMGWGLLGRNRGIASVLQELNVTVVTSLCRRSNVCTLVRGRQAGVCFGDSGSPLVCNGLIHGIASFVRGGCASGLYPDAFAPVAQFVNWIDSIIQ

This assay concerns the target neutrophil elastase (Homo sapiens (Human), UniProt P08246). Put plainly: Human Neutrophil Elastase Assay. The class given is biochemical. Particulars: substrate MeOSuc-Ala-Ala-Pro-Val-AMC. The protocol: Human Neutrophil Elastase Assay
All other materials were of the highest grade commercially available.
The following buffers were used: Compound buffer: 100 mM Tris, 500 mM NaCl, adjusted to pH 7.5; Assay buffer: 100 mM Tris, 500 mM NaCl, adjusted to pH 7.5, containing 0.01% BSA.
Assay conditions: Test compounds were prediluted in DMSO and subsequently in compound buffer (5% DMSO final). […] After inactivation of the enzyme, fluorescence intensities were measured at 380 nm excitation and 460 nm emission wavelengths.
Each plate contains wells with a high value control (DMSO+enzyme+substrate) and wells with a low value control (DMSO+inactivated enzyme+substrate). IC50 values were estimated using a sigmoidal concentration response curve with variable slope. Means of low values were taken as 0%, means of high values as 100%.
With `CC(=O)C1=C(C)N(c2cccc(C(F)(F)F)c2)C(=O)N(C)C1c1ccc(C#N)cc1C(=O)NCc1cccnc1` (stereo not shown) [Example 1.48], the IC50 is less than 1 nM.
The figure for `CC(=O)C1=C(C)N(c2cccc(C(F)(F)F)c2)C(=O)N(C)C1c1ccc(C#N)cc1C(=O)NCc1ccnnc1` (stereo not shown) [Example 1.49] is less than 1 nM.
The figure for `CC(=O)C1=C(C)N(c2cccc(C(F)(F)F)c2)C(=O)N(C)C1c1ccc(C#N)cc1C(=O)NCc1cccnn1` (stereo not shown) [Example 1.50] is less than 1 nM; for `CC(=O)C1=C(C)N(c2cccc(C(F)(F)F)c2)C(=O)N(C)C1c1ccc(C#N)cc1C(=O)NC(C)c1ccco1` (stereo not shown) [Example 1.51] it is 1.4 nM; for `CC(=O)C1=C(C)N(c2cccc(C(F)(F)F)c2)C(=O)N(C)C1c1ccc(C#N)cc1C(=O)NCc1cncn1C` (stereo not shown) [Example 1.52] it is less than 1 nM.
Take `CC(=O)C1=C(C)N(c2cccc(C(F)(F)F)c2)C(=O)N(C)C1c1ccc(C#N)cc1C(=O)NCc1ccnn1C` (stereo not shown) [Example 1.53]: the IC50 was less than 1 nM.
Turning to `CC(=O)C1=C(C)N(c2cccc(C(F)(F)F)c2)C(=O)N(C)C1c1ccc(C#N)cc1C(=O)NCc1cnn(C)c1` (stereo not shown) [Example 1.54], the IC50 is less than 1 nM.
Next, `CC(=O)C1=C(C)N(c2cccc(C(F)(F)F)c2)C(=O)N(C)C1c1ccc(C#N)cc1C(=O)NCc1ccn(C)n1` (stereo not shown) [Example 1.55]: less than 1 nM.
As to `CC(=O)C1=C(C)N(c2cccc(C(F)(F)F)c2)C(=O)N(C)C1c1ccc(C#N)cc1C(=O)N(C)Cc1cn[nH]c1` (stereo not shown) [Example 1.56], half-maximal inhibition (IC50) required 0.3 nM.
As to `CC(=O)C1=C(C)N(c2cccc(C(F)(F)F)c2)C(=O)N(C)C1c1ccc(C#N)cc1C(=O)NCc1nccn1C` (stereo not shown) [Example 1.57], the IC50 was less than 1 nM.
As to `CC(=O)C1=C(C)N(c2cccc(C(F)(F)F)c2)C(=O)N(C)C1c1ccc(C#N)cc1C(=O)NCc1cn(C)cn1` (stereo not shown) [Example 1.58], the IC50 was less than 1 nM.
`CC(=O)C1=C(C)N(c2cccc(C(F)(F)F)c2)C(=O)N(C)C1c1ccc(C#N)cc1C(=O)N(C)Cc1ccon1` (stereo not shown) [Example 1.59] came in with an IC50 of less than 1 nM.
The figure for `CC(=O)C1=C(C)N(c2cccc(C(F)(F)F)c2)C(=O)N(C)C1c1ccc(C#N)cc1C(=O)N(C)Cc1ccno1` (stereo not shown) [Example 1.60] is less than 1 nM; for `CC(=O)C1=C(C)N(c2cccc(C(F)(F)F)c2)C(=O)N(C)C1c1ccc(C#N)cc1C(=O)NCc1nncn1C` (stereo not shown) [Example 1.61] it is less than 1.3 nM; for `CC(=O)C1=C(C)N(c2cccc(C(F)(F)F)c2)C(=O)N(C)C1c1ccc(C#N)cc1C(=O)NCc1nnnn1C` (stereo not shown) [Example 1.62] it is less than 1 nM.
The figure for `CC(=O)C1=C(C)N(c2cccc(C(F)(F)F)c2)C(=O)N(C)C1c1ccc(C#N)cc1C(=O)N1CC[C@@H](N(C)C)C1` (stereo partly shown) [Example 1.63] is 1.8 nM; for `CC(=O)C1=C(C)N(c2cccc(C(F)(F)F)c2)C(=O)N(C)C1c1ccc(C#N)cc1C(=O)N1CC[C@H](N(C)C)C1` (stereo partly shown) [Example 1.64] it is less than 1 nM.
Consider `CCN1CCN(C(=O)c2cc(C#N)ccc2C2C(C(C)=O)=C(C)N(c3cccc(C(F)(F)F)c3)C(=O)N2C)CC1` (stereo not shown) [Example 1.65], for which it took 4.1 nM to reach half-maximal inhibition (IC50).
Compound `CC(=O)C1=C(C)N(c2cccc(C(F)(F)F)c2)C(=O)N(C)C1c1ccc(C#N)cc1C(=O)N1Cc2ccncc2C1` (stereo not shown) [Example 1.66] had an IC50 of 1.7 nM.
The figure for `CC(=O)C1=C(C)N(c2cccc(C(F)(F)F)c2)C(=O)N(C)C1c1ccc(C#N)cc1C(=O)NCc1ccc(C#N)o1` (stereo not shown) [Example 1.67] is 1.3 nM; for `CC(=O)C1=C(C)N(c2cccc(C(F)(F)F)c2)C(=O)N(C)C1c1ccc(C#N)cc1C(=O)N(C)Cc1ccncc1` (stereo not shown) [Example 1.68] it is less than 1 nM.
The figure for `CC(=O)C1=C(C)N(c2cccc(C(F)(F)F)c2)C(=O)N(C)C1c1ccc(C#N)cc1C(=O)N1CCn2cncc2C1` (stereo not shown) [Example 1.69] is less than 1 nM; for `CC(=O)C1=C(C)N(c2cccc(C(F)(F)F)c2)C(=O)N(C)C1c1ccc(C#N)cc1C(=O)N1CCn2ccnc2C1` (stereo not shown) [Example 1.70] it is less than 1 nM.
Compound `CC(=O)C1=C(C)N(c2cccc(C(F)(F)F)c2)C(=O)N(C)C1c1ccc(C#N)cc1C(=O)N1Cc2cnn(C)c2C1` (stereo not shown) [Example 1.71] registered an IC50 of less than 1 nM.
`CC(=O)C1=C(C)N(c2cccc(C(F)(F)F)c2)C(=O)N(C)C1c1ccc(C#N)cc1C(=O)N1CCc2nocc2C1` (stereo not shown) [Example 1.72] came in with an IC50 of 2.8 nM.
Next, `CC(=O)C1=C(C)N(c2cccc(C(F)(F)F)c2)C(=O)N(C)C1c1ccc(C#N)cc1C(=O)N1CCn2cnnc2C1` (stereo not shown) [Example 1.74]: less than 1 nM; `CC(=O)C1=C(C)N(c2cccc(C(F)(F)F)c2)C(=O)N(C)C1c1ccc(C#N)cc1C(=O)N(C)Cc1nccn1C` (stereo not shown) [Example 1.75]: less than 1 nM; `CC(=O)C1=C(C)N(c2cccc(C(F)(F)F)c2)C(=O)N(C)C1c1ccc(C#N)cc1C(=O)N(C)Cc1ccnn1C` (stereo not shown) [Example 1.76]: less than 1 nM.
The figure for `CC(=O)C1=C(C)N(c2cccc(C(F)(F)F)c2)C(=O)N(C)C1c1ccc(C#N)cc1C(=O)N(C)Cc1ccn(C)n1` (stereo not shown) [Example 1.78] is less than 1 nM; for `CC(=O)C1=C(C)N(c2cccc(C(F)(F)F)c2)C(=O)N(C)C1c1ccc(C#N)cc1C(=O)N(C)Cc1nncn1C` (stereo not shown) [Example 1.79] it is less than 1 nM.
The figure for `CC(=O)C1=C(C)N(c2cccc(C(F)(F)F)c2)C(=O)N(C)C1c1ccc(C#N)cc1C(=O)N1CCN2CCCC2C1` (stereo not shown) [Example 1.80] is 6.3 nM.
Compound `CC(=O)C1=C(C)N(c2cccc(C(F)(F)F)c2)C(=O)N(C)C1c1ccc(C#N)cc1C(=O)N1CCN(C2CC2)CC1` (stereo not shown) [Example 1.81] came in with an IC50 of 8.8 nM.
The figure for `CC(=O)C1=C(C)N(c2cccc(C(F)(F)F)c2)C(=O)N(C)C1c1ccc(C#N)cc1C(=O)N1CCN(C(C)C)CC1` (stereo not shown) [Example 1.82] is 2.7 nM.
In turn, `CC(=O)C1=C(C)N(c2cccc(C(F)(F)F)c2)C(=O)N(C)C1c1ccc(C#N)cc1C(=O)NC1CCN(C(C)C)C1` (stereo not shown) [Example 1.83] registered an IC50 of 1.2 nM.
Next, `CC(=O)C1=C(C)N(c2cccc(C(F)(F)F)c2)C(=O)N(C)C1c1ccc(C#N)cc1C(=O)NCCN(C)C` (stereo not shown) [Example 1.84]: less than 1 nM; `CC(=O)C1=C(C)N(c2cccc(C(F)(F)F)c2)C(=O)N(C)C1c1ccc(C#N)cc1C(=O)N1CC[C@@H](N)C1` (stereo partly shown) [Example 2.10]: less than 1 nM.
The figure for `CC(=O)C1=C(C)N(c2cccc(C(F)(F)F)c2)C(=O)N(C)C1c1ccc(C#N)cc1C(=O)N1CC[C@H](N)C1` (stereo partly shown) [Example 2.11] is less than 1 nM.
The figure for `CNCCN(C)C(=O)c1cc(C#N)ccc1C1C(C(C)=O)=C(C)N(c2cccc(C(F)(F)F)c2)C(=O)N1C` (stereo not shown) [Example 2.12] is less than 1 nM; for `CC(=O)C1=C(C)N(c2cccc(C(F)(F)F)c2)C(=O)N(C)C1c1ccc(C#N)cc1C(=O)NCC(C)(C)N` (stereo not shown) [Example 2.13] it is less than 1 nM.
On to `CC(=O)C1=C(C)N(c2cccc(C(F)(F)F)c2)C(=O)N(C)C1c1ccc(C#N)cc1C(=O)N1CC2CC1CN2` (stereo not shown) [Example 2.14], for which the IC50 came to 5.4 nM.
The figure for `CC(=O)C1=C(C)N(c2cccc(C(F)(F)F)c2)C(=O)N(C)C1c1ccc(C#N)cc1C(=O)N1CCNC(C)C1` (stereo not shown) [Example 2.15] is 4.5 nM; for `CN[C@H]1CCN(C(=O)c2cc(C#N)ccc2C2C(C(C)=O)=C(C)N(c3cccc(C(F)(F)F)c3)C(=O)N2C)C1` (stereo partly shown) [Example 2.16] it is 1.2 nM.
The figure for `CCOC(=O)C1=C(C)N(c2cccc(C(F)(F)F)c2)C(=O)N(C)C1c1ccc(C#N)cc1C(=O)N(C)C` (stereo not shown) [Example 3, 4-(4-Cyano-2-dimethylcarbamoyl-phenyl)-3,6-dimethyl-2-oxo-1-(3-trifluoromethyl-phenyl)-1,2,3,4-tetrahydro-pyrimidine-5-carboxylic acid ethyl ester] is less than 1 nM.
The figure for `CCOC(=O)C1=C(C)N(c2cccc(C(F)(F)F)c2)C(=O)N(C)C1c1ccc(C#N)cc1C(=O)NC1(C#N)CC1` (stereo not shown) [Example 3.1] is less than 1 nM; for `CCOC(=O)C1=C(C)N(c2cccc(C(F)(F)F)c2)C(=O)N(C)C1c1ccc(C#N)cc1C(=O)N1CCN(CC)CC1` (stereo not shown) [Example 3.2] it is 3 nM.
Consider `CCOC(=O)C1=C(C)N(c2cccc(C(F)(F)F)c2)C(=O)N(C)C1c1ccc(C#N)cc1C(N)=O` (stereo not shown) [Example 3.3], for which half-maximal inhibition (IC50) was put at 3 nM.
The figure for `CCOC(=O)C1=C(C)N(c2cccc(C(F)(F)F)c2)C(=O)N(C)C1c1ccc(C#N)cc1C(=O)NC` (stereo not shown) [Example 3.4] is 3 nM.
`CCNC(=O)c1cc(C#N)ccc1C1C(C(=O)OCC)=C(C)N(c2cccc(C(F)(F)F)c2)C(=O)N1C` (stereo not shown) [Example 3.5] had an IC50 of 3 nM.
Consider `C#CCNC(=O)c1cc(C#N)ccc1C1C(C(=O)OCC)=C(C)N(c2cccc(C(F)(F)F)c2)C(=O)N1C` (stereo not shown) [Example 3.6], for which the midpoint of inhibition, the IC50, lay at 3 nM.
The figure for `CCOC(=O)C1=C(C)N(c2cccc(C(F)(F)F)c2)C(=O)N(C)C1c1ccc(C#N)cc1C(=O)NCC#N` (stereo not shown) [Example 3.7] is 3 nM; for `CCOC(=O)C1=C(C)N(c2cccc(C(F)(F)F)c2)C(=O)N(C)C1c1ccc(C#N)cc1C(=O)NC1CC1` (stereo not shown) [Example 3.8] it is 3 nM.
The figure for `CCOC(=O)C1=C(C)N(c2cccc(C(F)(F)F)c2)C(=O)N(C)C1c1ccc(C#N)cc1C(=O)N1CCC1` (stereo not shown) [Example 3.9] is 3 nM; for `CCOC(=O)C1=C(C)N(c2cccc(C(F)(F)F)c2)C(=O)N(C)C1c1ccc(C#N)cc1C(=O)NCCO` (stereo not shown) [Example 3.10] it is 3 nM; for `CCOC(=O)C1=C(C)N(c2cccc(C(F)(F)F)c2)C(=O)N(C)C1c1ccc(C#N)cc1C(=O)NCCF` (stereo not shown) [Example 3.11] it is less than 1 nM.
The figure for `CCOC(=O)C1=C(C)N(c2cccc(C(F)(F)F)c2)C(=O)N(C)C1c1ccc(C#N)cc1C(=O)N1CCCC1` (stereo not shown) [Example 3.12] is less than 1 nM.
